Target: T1, AADC (Sus scrofa, UniProt P80041)
T1 sequence (P80041 1-486): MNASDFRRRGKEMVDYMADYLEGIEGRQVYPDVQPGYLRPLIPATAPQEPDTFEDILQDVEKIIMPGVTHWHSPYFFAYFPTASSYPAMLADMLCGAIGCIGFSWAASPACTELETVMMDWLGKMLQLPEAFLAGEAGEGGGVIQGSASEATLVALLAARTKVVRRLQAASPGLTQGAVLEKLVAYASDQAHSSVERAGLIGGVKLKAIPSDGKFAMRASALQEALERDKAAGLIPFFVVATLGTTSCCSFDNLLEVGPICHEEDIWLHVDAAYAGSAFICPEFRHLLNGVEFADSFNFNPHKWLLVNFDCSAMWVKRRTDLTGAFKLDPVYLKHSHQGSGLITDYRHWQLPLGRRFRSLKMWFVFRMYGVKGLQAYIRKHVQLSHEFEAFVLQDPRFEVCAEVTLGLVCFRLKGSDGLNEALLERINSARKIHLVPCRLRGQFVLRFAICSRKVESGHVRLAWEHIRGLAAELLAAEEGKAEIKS
Experiment: In vitro AADC inhibition: time of 90% inactivation (14CO2 trapping, DL-[1-14C]-dopa substrate)
Assay type: biochemical, hog
Parameters: key to RATING: ++++: The relative activities of the compounds are rated by the given number of "plus" signs; +++: The relative activities of the compounds are rated by the given number of "plus" signs; 0-+: The relative activities of the compounds are rated by the given number of "plus" signs
Settings: CONC. 10 μM
Experimental: AADC can be purified from hog kidney by the general method of J. Christenson et al. Archs. Biochem. Biophys., 141, 356 (1970) and G. Lancaster et al., Can. J. Biochem., 50, 791 (1972), and the specific activity of the enzyme is determined by the ^14 CO2 trapping method using DL-[1-^14 C]-dopa as the substrate (see Christenson et al.). One unit of activity is defined as the total amount of enzyme which produces 1 n mol of CO2 per minute, with DL-[1-^14 C]-dopa as substrate.
To 100 μl of 50 mM-phosphate buffer pH 7.4 containing 100 mM-mercapto-ethanol are added 5 μl of an aqueous solution containing the test compound at the desired concentration and 50 μl of an aqueous solution containing 2 units of AADC. The mixture is incubated at 37° C. and 20 μl aliquots are removed at various times. The AADC activity remaining in each aliquot is measured by the CO2 trapping method of Christenson.
The relative activities of the compounds are rated by the given number of "plus" signs.

NC(CF)(Cc1ccc(O)c(O)c1)C(=O)O (centres unmarked) [3,4-diOH-phenyl, 2-Amino-2-fluoromethyl-3-(3,4-dihydroxyphenyl)propionic acid]
TIME OF 90% INACTIVATION (pH 7.4, 37° C.): 1 to 2 min
RATING (relative activity): ++++

Reference: patent US4342780A, “Method of depleting endogenous monoamines” (Merrell-Toraude et Cie, priority 1981, dated 1982)
